In series [1] the test system is Burkholderia mallei strain CHN7. As to the kind of experiment: microbe, parasite or virus in culture. Format: cell-based.
Series [2] deals with Brucella melitensis strain 16M. As to the kind of experiment: microbe, parasite or virus in culture. Format: cell-based.
The target of series [3] is M. tuberculosis RNA polymerase core enzyme, M. tuberculosis σ^A (Mycobacterium tuberculosis, UniProt P9WGY7+P9WGY9). In words: Fluorescence-detected inhibition of Mycobacterium tuberculosis RNA polymerase. Format: biochemical. On the procedure:
(§1) Fluorescence-detected RNA polymerase assays with E. coli RNA polymerase were performed by a modification of the procedure of Kuhlman et al., 2004 [Kuhlman, P., Duff, H. & Galant, A. (2004) A fluorescence-based assay for multisubunit DNA-dependent RNA polymerases. Anal. Biochem. 324, 183-190]. Reaction mixtures contained (20 μl): 0-100 nM test compound, 75 nM E. coli RNA polymerase σ^70 holoenzyme, 20 nM 384 bp DNA fragment containing the bacteriophage T4 N25 promoter, 100 μM ATP, 100 μM GTP, 100 μM UTP, 100 μM CTP, 50 mM Tris-HCl, pH 8.0, 100 mM KCl, 10 mM MgCl2, 1 mM DTT, 10 μg/ml bovine serum albumin, and 5.5% glycerol. Reaction components other than DNA and NTPs were pre-incubated for 10 min at 37° C. Reactions were carried out by addition of DNA and incubation for 5 min at 37° C., followed by addition of NTPs and incubation for 60 min at 37° C. DNA was removed by addition of 1 μl 5 mM CaCl2 and 2 U DNaseI (Ambion, Inc.), followed by incubation for 90 min at 37° C. RNA was quantified by addition of 100 μl RiboGreen RNA Quantitation Reagent (Invitrogen, Inc.; 1:500 dilution in Tris-HCl, pH 8.0, 1 mM EDTA), followed by incubation for 10 min at 25° C., followed by measurement of fluorescence intensity [excitation wavelength=485 nm and emission wavelength=535 nm; QuantaMaster QM1 spectrofluorometer (PTI, Inc.)]. IC50 is defined as the concentration of inhibitor resulting in 50% inhibition of RNA polymerase activity.
Fluorescence-detected RNA polymerase assays with M. tuberculosis RNA polymerase were performed as in Example 17.1, using reaction mixtures containing (20 μl): 0-100 nM test compound, 75 nM M. tuberculosis RNA polymerase core enzyme, 300 nM M. tuberculosis σ^A, 20 nM 384 bp DNA fragment containing the bacteriophage […] N25 promoter, 100 μM ATP, […], 100 μM UTP, 100 μM CTP, 40 mM Tris-HCl, pH 8.0, 80 mM NaCl, 5 mM MgCl2, 2.5 mM DTT, and 12.7% glycerol. IC50 is defined as the concentration of inhibitor resulting in 50% inhibition of RNA polymerase activity.

Series [4] concerns the target E. coli RNA polymerase σ^70 holoenzyme (Escherichia coli, UniProt P0A8T7+P0A8V2). In words: Fluorescence-detected inhibition of Escherichia coli RNA polymerase. Type of series: biochemical. The note with it: read-out: IC50 E. coli RNAP. On the procedure: as §1
Assay in series [5]: not given
The source holds these as a separate data set.

Series [6] relates to Enterococcus faecalis ATCC strain 19433. In words: MIC, spiral gradient endpoint assay, E. faecalis. Conditions: for MIC: Enterococcus faecalis, ATCC19433, 16 h, read-out: MIC E. faecalis 19433.
In series [7] the test system is Burkholderia pseudomallei strain Human/Blood/OH/US/1994. In words: microbe, parasite or virus in culture. Format: cell-based.
The subject of series [8] is Bacillus anthracis strain Vollum 1 b. In words: microbe, parasite or virus in culture. Type of series: cell-based.
Series [9] concerns Francisella tularensis strain SCHU4. In words: microbe, parasite or virus in culture. Type of series: cell-based.
In series [10] the test system is Escherichia coli D212f2tolC. Conditions: MIC in presence of 10% mouse serum divided by MIC in absence of 10% mouse serum.
In series [11] the target is S. aureus RNA polymerase core enzyme, S. aureus σ^A (Staphylococcus aureus, UniProt P47768+Q2G0N5). As to the kind of experiment: Fluorescence-detected inhibition of Staphylococcus aureus RNA polymerase. Type of series: biochemical. On the procedure:
as §1
Fluorescence-detected RNA polymerase assays with S. aureus RNA polymerase were performed as in Example 17.1, using reaction mixtures containing (20 μl): 0-100 nM test compound, 75 nM S. aureus RNA polymerase core enzyme, 300 nM S. aureus σ^A, 20 nM 384 bp DNA fragment containing the bacteriophage T4 N25 promoter, 100 μM ATP, 100 μM GTP, 100 μM UTP, 100 μM CTP, 40 mM Tris-HCl, pH 8.0, 80 mM NaCl, 5 mM MgCl2, 2.5 mM DTT, and 12.7% glycerol. IC50 is defined as the concentration of inhibitor resulting in 50% inhibition of RNA polymerase activity.

Series [12] can be described thus: physchem. The note with it: pH 7.4.
Series [13] can be described thus: Metabolic stability in the presence of human liver microsomes. On the technique in general: Microsomes from liver hold many membrane-bound enzymes, among them those of drug oxidation.
[14] abbreviates: read-out: IC50 M. tuberculosis RNAP.

What is called IC50 is the concentration that inhibits the measured activity by half. In general, logD refers to the decadic logarithm of the distribution of all forms, ionised or not, between an organic phase and buffer at a given pH. A high value points to higher lipophilicity. Usually half-life stands for the time needed for the level to fall by half in the phase considered.

Converted amounts (≈) assume the structure as drawn. Read-outs that look alike come from different tables or passages of the source.

M. tuberculosis RNA polymerase core enzyme, M. tuberculosis σ^A, sequence (P9WGY7 whole entry, the tested form may be a part): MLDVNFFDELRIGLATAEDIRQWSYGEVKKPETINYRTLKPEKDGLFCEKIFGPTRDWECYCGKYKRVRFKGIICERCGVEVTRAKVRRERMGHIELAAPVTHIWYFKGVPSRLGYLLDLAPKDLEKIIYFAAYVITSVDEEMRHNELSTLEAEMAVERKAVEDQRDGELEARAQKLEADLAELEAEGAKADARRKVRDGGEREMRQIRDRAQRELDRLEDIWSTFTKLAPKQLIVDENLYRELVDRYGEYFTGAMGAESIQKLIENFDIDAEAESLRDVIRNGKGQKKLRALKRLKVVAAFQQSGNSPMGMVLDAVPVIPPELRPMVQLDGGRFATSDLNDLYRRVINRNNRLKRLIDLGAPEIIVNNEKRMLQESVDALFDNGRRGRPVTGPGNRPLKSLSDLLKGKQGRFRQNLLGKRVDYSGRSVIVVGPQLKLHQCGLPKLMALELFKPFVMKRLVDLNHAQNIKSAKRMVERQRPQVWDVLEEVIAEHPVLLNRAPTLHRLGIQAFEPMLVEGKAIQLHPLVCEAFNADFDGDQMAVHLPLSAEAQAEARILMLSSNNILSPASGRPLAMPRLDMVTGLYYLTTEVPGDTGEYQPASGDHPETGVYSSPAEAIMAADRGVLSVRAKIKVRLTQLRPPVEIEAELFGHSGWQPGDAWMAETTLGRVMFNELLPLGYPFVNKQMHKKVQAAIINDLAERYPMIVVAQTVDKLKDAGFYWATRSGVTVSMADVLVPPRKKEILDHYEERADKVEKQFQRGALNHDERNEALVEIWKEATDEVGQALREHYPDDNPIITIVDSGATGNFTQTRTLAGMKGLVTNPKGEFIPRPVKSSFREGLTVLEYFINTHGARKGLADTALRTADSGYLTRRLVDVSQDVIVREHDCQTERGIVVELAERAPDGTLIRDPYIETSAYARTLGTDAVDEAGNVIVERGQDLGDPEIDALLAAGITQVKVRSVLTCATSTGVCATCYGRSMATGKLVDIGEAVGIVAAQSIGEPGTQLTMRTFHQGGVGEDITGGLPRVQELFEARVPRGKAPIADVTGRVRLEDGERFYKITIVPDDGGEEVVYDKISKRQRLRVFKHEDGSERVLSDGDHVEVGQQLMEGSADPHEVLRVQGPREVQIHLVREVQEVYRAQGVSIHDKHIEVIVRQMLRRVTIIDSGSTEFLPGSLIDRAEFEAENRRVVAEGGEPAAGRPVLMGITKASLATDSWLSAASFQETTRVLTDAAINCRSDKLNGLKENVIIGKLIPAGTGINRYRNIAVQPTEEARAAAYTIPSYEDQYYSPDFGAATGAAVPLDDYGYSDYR
M. tuberculosis RNA polymerase core enzyme, M. tuberculosis σ^A, sequence (P9WGZ1 whole entry, further chain, the tested form may be a part): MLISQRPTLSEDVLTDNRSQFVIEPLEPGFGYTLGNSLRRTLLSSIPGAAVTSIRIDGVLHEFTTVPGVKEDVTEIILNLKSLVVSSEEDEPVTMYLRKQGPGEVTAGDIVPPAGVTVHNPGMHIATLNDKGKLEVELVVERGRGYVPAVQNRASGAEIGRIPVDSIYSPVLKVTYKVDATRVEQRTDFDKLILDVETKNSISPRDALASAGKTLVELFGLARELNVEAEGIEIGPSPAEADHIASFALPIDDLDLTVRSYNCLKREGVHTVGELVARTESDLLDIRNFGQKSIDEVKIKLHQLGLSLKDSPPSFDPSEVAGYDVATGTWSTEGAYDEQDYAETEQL
M. tuberculosis RNA polymerase core enzyme, M. tuberculosis σ^A, sequence (P9WGY9 whole entry, the tested form may be a part): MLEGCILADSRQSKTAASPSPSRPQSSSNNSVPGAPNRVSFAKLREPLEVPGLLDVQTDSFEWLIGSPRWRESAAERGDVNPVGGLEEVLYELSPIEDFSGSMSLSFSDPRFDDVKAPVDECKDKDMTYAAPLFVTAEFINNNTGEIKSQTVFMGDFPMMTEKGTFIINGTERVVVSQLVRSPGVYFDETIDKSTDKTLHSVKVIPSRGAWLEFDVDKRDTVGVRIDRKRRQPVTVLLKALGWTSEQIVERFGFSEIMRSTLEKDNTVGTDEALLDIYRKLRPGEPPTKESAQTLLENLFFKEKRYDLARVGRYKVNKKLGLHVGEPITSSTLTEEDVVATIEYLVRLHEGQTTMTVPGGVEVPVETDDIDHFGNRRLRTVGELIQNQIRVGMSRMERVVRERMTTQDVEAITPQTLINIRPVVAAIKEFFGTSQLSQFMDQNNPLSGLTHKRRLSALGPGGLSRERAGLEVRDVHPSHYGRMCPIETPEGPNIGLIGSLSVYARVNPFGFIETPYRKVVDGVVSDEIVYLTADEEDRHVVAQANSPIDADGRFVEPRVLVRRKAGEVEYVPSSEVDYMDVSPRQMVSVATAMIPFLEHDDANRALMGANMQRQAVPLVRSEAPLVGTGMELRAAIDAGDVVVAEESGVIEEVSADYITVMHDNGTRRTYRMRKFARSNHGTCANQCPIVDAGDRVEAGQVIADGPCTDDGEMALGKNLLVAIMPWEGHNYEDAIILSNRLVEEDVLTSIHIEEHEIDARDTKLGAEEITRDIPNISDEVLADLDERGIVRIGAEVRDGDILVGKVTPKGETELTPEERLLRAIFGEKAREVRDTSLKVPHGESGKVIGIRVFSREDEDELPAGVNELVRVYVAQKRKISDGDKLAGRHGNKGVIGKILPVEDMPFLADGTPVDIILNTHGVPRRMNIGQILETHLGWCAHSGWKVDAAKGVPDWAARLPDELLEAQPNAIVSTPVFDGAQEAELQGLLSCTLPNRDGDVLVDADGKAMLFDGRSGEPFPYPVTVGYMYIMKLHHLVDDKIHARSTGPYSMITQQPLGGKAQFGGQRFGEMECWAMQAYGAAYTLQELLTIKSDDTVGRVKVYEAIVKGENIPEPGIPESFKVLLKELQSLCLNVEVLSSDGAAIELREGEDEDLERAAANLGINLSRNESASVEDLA
M. tuberculosis RNA polymerase core enzyme, M. tuberculosis σ^A, sequence (P9WGY5 whole entry, further chain, the tested form may be a part): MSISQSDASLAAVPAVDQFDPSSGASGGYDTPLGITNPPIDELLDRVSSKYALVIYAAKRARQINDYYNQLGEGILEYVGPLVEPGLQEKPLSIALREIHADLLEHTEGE
M. tuberculosis RNA polymerase core enzyme, M. tuberculosis σ^A, sequence (P9WGI1 whole entry, further chain, the tested form may be a part): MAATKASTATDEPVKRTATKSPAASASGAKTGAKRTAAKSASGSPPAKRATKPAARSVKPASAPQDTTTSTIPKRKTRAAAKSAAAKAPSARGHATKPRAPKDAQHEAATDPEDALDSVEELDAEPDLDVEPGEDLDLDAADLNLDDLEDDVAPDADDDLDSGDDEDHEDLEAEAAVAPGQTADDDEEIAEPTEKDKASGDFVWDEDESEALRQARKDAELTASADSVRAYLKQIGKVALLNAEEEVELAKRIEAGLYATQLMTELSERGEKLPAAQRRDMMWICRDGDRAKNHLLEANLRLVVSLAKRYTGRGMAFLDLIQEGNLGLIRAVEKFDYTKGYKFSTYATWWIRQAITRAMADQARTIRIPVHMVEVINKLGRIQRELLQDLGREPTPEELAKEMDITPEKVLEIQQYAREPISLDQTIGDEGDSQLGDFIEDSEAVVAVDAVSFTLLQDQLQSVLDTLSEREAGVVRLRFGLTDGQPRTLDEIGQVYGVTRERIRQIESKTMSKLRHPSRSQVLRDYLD

As to `CCCC/C(C)=C/C=C(\C)C(=O)c1c(O)cc([C@H](C)CC/C=C/NC(=O)OC)oc1=O` (racemic) [Myx B, (±)myxopyronin B, reference compound], the “half-life human liver microsomes” value is given as 3 min. Also, the “MIC B. mallei CHN7” value in series [1] (broth microdilution) amounted to 6 µg/mL (≈ 13.9 µM). The “MIC B. melitensis 16M” value in series [2] (broth microdilution) was 3 µg/mL (≈ 6.95 µM). The half-inhibitory concentration (IC50) in series [3] (setting [14]) came out at 100 nM. For the same molecule, the IC50 in series [4] stood at 10 nM. Besides, the “logD (pH 7.4)” value in series [5] was 1.8. Besides, the “MIC E. faecalis 19433” value in series [6] (16 h at 37° C., Mueller-Hinton II agar) came to 20 µg/mL (≈ 46.3 µM). Besides, the “MIC B. pseudomallei Human/Blood/OH/US/1994” value in [7] (broth microdilution) was determined as 30 µg/mL (≈ 69.5 µM). In addition, in series [8] (broth microdilution), the “MIC B. anthracis Vollum1b” value was 6 µg/mL (≈ 13.9 µM). Besides, in series [9] (broth microdilution), the “MIC F. tularensis SCHU4” value is 2 µg/mL (≈ 4.63 µM). Further, the serum shift in [10] is listed as 16. Also, the IC50 in [11] (read-out: IC50 S. aureus RNAP) was determined as 70 nM.
Regarding `COC(=O)N/C=C/CCC(C)c1cc(O)c(C(=O)/C(C)=C/C=C(\C)CCC(F)(F)F)c(=O)o1` (stereo not drawn) [compound 5], the IC50 in series [3] (setting [14]) was 100 nM; in series [4], 4 nM; in series [11] (read-out: IC50 S. aureus RNAP), 100 nM. For the same molecule, the MIC in [6] was greater than 40 µg/mL. In addition, the serum shift in series [10] is 8.
In the case of `COC(=O)N/C=C/CCC(C)c1cc(O)c(C(=O)/C(C)=C/C=C(\C)CCCC(F)(F)F)c(=O)o1` (stereo not drawn) [compound 1, Methyl ((E)-5-(4-hydroxy-2-oxo-3-((2E,4E)-9,9,9-trifluoro-2,5-dimethylnona-2,4-dienoyl)-2H-pyran-6-yl)hex-1-en-1-yl)carbamate], the MIC was 10 µg/mL (≈ 20.6 µM) in series [1] (Burkholderia mallei, CHN7, read-out: MIC B. mallei CHN7); 6 µg/mL (≈ 12.4 µM) in series [2] (Brucella melitensis, 16M, read-out: MIC B. melitensis 16M); 9 µg/mL (≈ 18.5 µM) in [6]; 50 µg/mL (≈ 103 µM) in [7] (Burkholderia pseudomallei, read-out: MIC B. pseudomallei Human/Blood/OH/US/1994); 6 µg/mL (≈ 12.4 µM) in [8] (Bacillus anthracis, VOLLUM1B, read-out: MIC B. anthracis Vollum1b); 3 µg/mL (≈ 6.18 µM) in [9] (Francisella tularensis, SCHU4, read-out: MIC F. tularensis SCHU4). For the same molecule, the results for the IC50 in series [3] (setting [14]), in series [4] and in series [11] (read-out: IC50 S. aureus RNAP) were 30 nM, 4 nM and 10 nM, respectively. In series [12], this molecule had a logD of 1.4. The serum shift in series [10] amounted to 8. Besides, the “higher metabolic stability than (±)myxopyronin B” value in series [13] (human liver microsomes, relative to Myx B) fell in the range of 4 to 5 times. In addition, in series [13] (human, liver microsomes), the half-life was determined as 14 min.
Turning to `COC(=O)N/C=C/CCCc1cc(O)c(C(=O)/C(C)=C/C=C(\C)CCCC(F)(F)F)c(=O)o1` [compound 9, Methyl ((E)-5-(4-hydroxy-2-oxo-3-((2E,4E)-9,9,9-trifluoro-2,5-dimethylnona-2,4-dienoyl)-2H-pyran-6-yl)pent-1-en-1-yl)carbamate], the results for the IC50 in series [3] (setting [14]) and in series [4] were 60 nM and 5 nM, respectively. For the same molecule, the MIC in series [6] is 10 µg/mL (≈ 21.2 µM). Moreover, the serum shift in [10] is on record as 8.
Regarding `COC(=O)N/C=C/CCCc1cc(O)c(C(=O)/C(C)=C/C=C(\C)CCC(F)(F)F)c(=O)o1` [compound 11, Methyl ((E)-5-(4-hydroxy-2-oxo-3-((2E,4E)-8,8,8-trifluoro-2,5-dimethylocta-2,4-dienoyl)-2H-pyran-6-yl)pent-1-en-1-yl)carbamate], in series [4], the IC50 is 20 nM. Moreover, the MIC in series [6] was greater than 40 µg/mL. Also, the serum shift in series [10] turned out to be 4.
`COC(=O)N/C=C/CCC(C)c1cc(O)c(C(=O)/C(C)=C/C=C(\C)CCCCC(F)(F)F)c(=O)o1` (stereo not drawn) [compound 3, Methyl ((E)-5-(4-hydroxy-2-oxo-3-((2E,4E)-10,10,10-trifluoro-2,5-dimethyldeca-2,4-dienoyl)-2H-pyran-6-yl)hex-1-en-1-yl)carbamate]: the values for the IC50 in [3], in series [4] and in [11] were 200 nM, 10 nM and 40 nM, respectively. The MIC in [6] was 10 µg/mL (≈ 20 µM). Moreover, in series [10], the serum shift worked out at 16.
